Measurements published in patent US8940909B2, “Indicator platform” (Biosynth AG, priority 2009, dated 2015).

What was measured:
Experiment in all cases: IO staining of colonies of beta-D-galactosidase positive/negative bacteria (Table IVb)
Type in all cases: cell-based
[1] = test system: Escherichia coli 270; details: Escherichia coli strain 270, b-gal +; 24 h on Nutrient Agar, 150 mg/l indicator, 100 mg/l IPTG; as to C: Color of colonies: key: −: absent; +/−: weak; +: strong; ++: very strong; as to G: Growth of colonies: key: −: absent; +/−: weak; +: strong; ++: very strong
[2] = test system: Pseudomonas aeruginosa 168; details: Pseudomonas aeruginosa strain 168, b-gal −, 24 h on Nutrient Agar, 150 mg/l indicator, 100 mg/l IPTG; as to C: Color of colonies: key: −: absent; +/−: weak; +: strong; ++: very strong; as to G: Growth of colonies: key: −: absent; +/−: weak; +: strong; ++: very strong
[3] = test system: Yersinia enterocolitica 175; details: Yersinia enterocolitica strain 175, b-gal +/−; 24 h on Nutrient Agar, 150 mg/l indicator, 100 mg/l IPTG; as to G: Growth of colonies: key: −: absent; +/−: weak; +: strong; ++: very strong
[4] = test system: Salmonella enteritidis 43; details: Salmonella enteritidis strain 43, b-gal −; 24 h on Nutrient Agar, 150 mg/l indicator, 100 mg/l IPTG; also: key: −: absent; +/−: weak; +: strong; ++: very strong
[5] = test system: Salmonella bongori 81; details: Salmonella bongori strain 81, b-gal +; 24 h on Nutrient Agar, 150 mg/l indicator, 100 mg/l IPTG; as to C: Color of colonies: key: −: absent; +/−: weak/variable; +: strong; as to G: Growth of colonies: key: −: absent; +/−: weak; +: strong; ++: very strong
[6] = test system: Listeria monocytogenes (4b) 290; details: Listeria monocytogenes (4b) strain 290, b-gal −; 24 h on Nutrient Agar, 150 mg/l indicator, 100 mg/l IPTG; as to C: Color of colonies: key: −: absent; +/−: weak; +: strong; ++: very strong; as to F: Fluorescence of colonies: key: −: absent; +/−: weak; +: strong; ++: very strong
[7] = test system: Shigella boydii 135; details: Shigella boydii strain 135, b-gal −; 24 h on Nutrient Agar, 150 mg/l indicator, 100 mg/l IPTG; also: key: −: absent; +/−: weak; +: strong; ++: very strong
[8] = test system: Klebsiella pneumoniae 164; details: Klebsiella pneumoniae strain 164, b-gal +; 24 h on Nutrient Agar, 150 mg/l indicator, 100 mg/l IPTG; as to C: Color of colonies: key: −: absent; +/−: weak; +: strong; ++: very strong; as to G: Growth of colonies: key: −: absent; +/−: weak; +: strong; ++: very strong
[9] = test system: Citrobacter freundii 181; details: Citrobacter freundii strain 181, b-gal +; 24 h on Nutrient Agar, 150 mg/l indicator, 100 mg/l IPTG; as to C: Color of colonies: key: −: absent; +/−: weak; +: strong; ++: very strong; as to G: Growth of colonies: key: −: absent; +/−: weak; +: strong; ++: very strong
[10] = test system: Shigella dysenteriae Serovar 1 131; details: Shigella dysenteriae Serovar 1 strain 131, b-gal +/−; 24 h on Nutrient Agar, 150 mg/l indicator, 100 mg/l IPTG
[11] = test system: Staphylococcus saprophyticus 273; details: Staphylococcus saprophyticus strain 273, b-gal +; 24 h on Nutrient Agar, 150 mg/l indicator, 100 mg/l IPTG; as to G: Growth of colonies: key: −: absent; +/−: weak; +: strong; ++: very strong
[12] = test system: Streptococcus agalactiae 195; details: Streptococcus agalactiae strain 195, b-gal −; 24 h on Nutrient Agar, 150 mg/l indicator, 100 mg/l IPTG; as to C: Color of colonies: key: −: absent; +/−: weak; +: strong; ++: very strong; as to F: Fluorescence of colonies: key: −: absent; +/−: weak; +: strong; ++: very strong
[13] = test system: Enterobacter aerogenes 242; details: Enterobacter aerogenes strain 242, b-gal +; 24 h on Nutrient Agar, 150 mg/l indicator, 100 mg/l IPTG; as to C: Color of colonies: key: −: absent; +/−: weak; +: strong; ++: very strong; as to G: Growth of colonies: key: −: absent; +/−: weak; +: strong; ++: very strong
[14] = test system: Shigella sonnei 133; details: Shigella sonnei strain 133, b-gal +/−; 24 h on Nutrient Agar, 150 mg/l indicator, 100 mg/l IPTG; as to C: Color of colonies: key: −: absent; +/−: weak; +: strong; ++: very strong; as to G: Growth of colonies: key: −: absent; +/−: weak; +: strong; ++: very strong
[15] = test system: Salmonella illa 73; details: Salmonella illa strain 73, b-gal +; 24 h on Nutrient Agar, 150 mg/l indicator, 100 mg/l IPTG; also: key: −: absent; +/−: weak; +: strong; ++: very strong
[16] = test system: Bacillus subtilis 65; details: Bacillus subtilis strain 65, b-gal −; 24 h on Nutrient Agar, 150 mg/l indicator, 100 mg/l IPTG; as to C: Color of colonies: key: −: absent; +/−: weak; +: strong; ++: very strong; as to F: Fluorescence of colonies: key: −: absent; +/−: weak; +: strong; ++: very strong
[17] = test system: Staphylococcus aureus 2; details: Staphylococcus aureus strain 2, b-gal −, 24 h on Nutrient Agar, 150 mg/l indicator, 100 mg/l IPTG; as to F: Fluorescence of colonies: key: −: absent; +/−: weak; +: strong; ++: very strong
[18] = test system: Escherichia coli 61; details: Escherichia coli strain 61, b-gal +; 24 h on Nutrient Agar, 150 mg/l indicator, 100 mg/l IPTG; as to C: Color of colonies: key: −: absent; +/−: weak; +: strong; ++: very strong; as to G: Growth of colonies: key: −: absent; +/−: weak; +: strong; ++: very strong
[19] = test system: Escherichia coli (O157:H7) 60; details: Escherichia coli (O157:H7) strain 60, b-gal +; 24 h on Nutrient Agar, 150 mg/l indicator, 100 mg/l IPTG
[20] = test system: Serratia marcescens 40; details: Serratia marcescens strain 40, b-gal +; 24 h on Nutrient Agar, 150 mg/l indicator, 100 mg/l IPTG; as to G: Growth of colonies: key: −: absent; +/−: weak; +: strong; ++: very strong
[21] = test system: Enterobacter cloacae 245; details: Enterobacter cloacae strain 245, b-gal +; 24 h on Nutrient Agar, 150 mg/l indicator, 100 mg/l IPTG; as to C: Color of colonies: key: −: absent; +/−: weak; +: strong; ++: very strong; as to G: Growth of colonies: key: −: absent; +/−: weak; +: strong; ++: very strong
[22] = test system: Staphylococcus intermedius 31; details: Staphylococcus intermedius strain 31, b-gal +; 24 h on Nutrient Agar, 150 mg/l indicator, 100 mg/l IPTG
[23] = test system: Aeromonas hydrophila 292; details: Aeromonas hydrophila strain 292, b-gal +; 24 h on Nutrient Agar, 150 mg/l indicator, 100 mg/l IPTG; as to G: Growth of colonies: key: −: absent; +/−: weak; +: strong; ++: very strong

Compound: CC(=O)c1ccccc1-n1cc(O[C@@H]2O[C@H](CO)[C@H](O)[C@H](O)[C@H]2O)c2ccc(Cl)cc21 [Indicator I16a, 1-(2-Acetylphenyl)-6-chloro-1H-indol-3-yl-beta-D-galactopyranoside]
- C: Color of colonies [1]: +
- F: Fluorescence of colonies [1]: +
- G: Growth of colonies [1]: +
- C: Color of colonies [2]: −
- G: Growth of colonies [2]: +
- F: Fluorescence of colonies ([2]; footnote 1: blue autofluorescence): +^1
- C: Color of colonies [3]: −
- F: Fluorescence of colonies [3]: −
- G: Growth of colonies [3]: +
- C: Color of colonies [4]: −
- F: Fluorescence of colonies [4]: −
- G: Growth of colonies [4]: +
- C: Color of colonies [5]: +/−
- F: Fluorescence of colonies [5]: +/−
- G: Growth of colonies [5]: +
- C: Color of colonies [6]: −
- F: Fluorescence of colonies [6]: −
- G: Growth of colonies [6]: +/−
- C: Color of colonies [7]: −
- F: Fluorescence of colonies [7]: −
- G: Growth of colonies [7]: +
- C: Color of colonies [8]: +
- F: Fluorescence of colonies [8]: +
- G: Growth of colonies [8]: +
- C: Color of colonies [9]: +
- F: Fluorescence of colonies [9]: +
- G: Growth of colonies [9]: +
- C: Color of colonies [10]: −
- F: Fluorescence of colonies [10]: −
- G: Growth of colonies [10]: +
- C: Color of colonies [11]: +
- F: Fluorescence of colonies [11]: +
- G: Growth of colonies [11]: +
- C: Color of colonies [12]: −
- F: Fluorescence of colonies [12]: −
- G: Growth of colonies [12]: +/−
- C: Color of colonies [13]: +
- F: Fluorescence of colonies [13]: +
- G: Growth of colonies [13]: +
- C: Color of colonies [14]: +
- F: Fluorescence of colonies [14]: +
- G: Growth of colonies [14]: +
- C: Color of colonies [15]: −
- F: Fluorescence of colonies [15]: −
- G: Growth of colonies [15]: +
- C: Color of colonies [16]: −
- F: Fluorescence of colonies [16]: −
- G: Growth of colonies [16]: +
- F: Fluorescence of colonies [17]: −
- G: Growth of colonies [17]: +/−
- C: Color of colonies ([17]; footnote 2: S. aureus natural color): −
- C: Color of colonies [18]: +
- F: Fluorescence of colonies [18]: +
- G: Growth of colonies [18]: +
- C: Color of colonies [19]: +
- F: Fluorescence of colonies [19]: +
- G: Growth of colonies [19]: +
- C: Color of colonies [20]: +
- F: Fluorescence of colonies [20]: +
- G: Growth of colonies [20]: +
- C: Color of colonies [21]: +
- F: Fluorescence of colonies [21]: +
- G: Growth of colonies [21]: +
- C: Color of colonies [22]: +/−
- F: Fluorescence of colonies [22]: +/−
- G: Growth of colonies [22]: +/−
- C: Color of colonies [23]: +
- F: Fluorescence of colonies [23]: +
- G: Growth of colonies [23]: +
